Measured values as given in the supplement of paper PMC11551840.

Experiments:
Assay in all cases: IC50 (cell viability, 72 h) (ln(µM))
ORL-214 = test system: ORL-214
Experimental: (§1)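 Discovery screen of OSCC cell lines in 1,536-well plates. Cells were treated 24 h after seeding with 7 concentrations spanning a 1,000-fold half-log range for 72 h, and viability was read by CellTiter-Glo 2.0 and normalised to DMSO (1) and medium-only (0) controls. IC50 comes from a two-parameter logistic nonlinear mixed-effects fit and is reported as natural log of IC50 in µM.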

ORL-115 = test system: ORL-115
Experimental: as §1

ORL-48 = test system: ORL-48
Experimental: as §1

BICR10 = test system: BICR10
Experimental: as §1

SAS = test system: SAS
Experimental: as §1

ORL-136 = test system: ORL-136
Experimental: as §1

HSC-4 = test system: HSC-4
Experimental: as §1

ORL-174 = test system: ORL-174
Experimental: as §1

ORL-188 = test system: ORL-188
Experimental: as §1

HO-1-u-1 = test system: HO-1-u-1
Experimental: as §1

ORL-195 = test system: ORL-195
Experimental: as §1

ORL-207 = test system: ORL-207
Experimental: as §1

ORL-150 = test system: ORL-150
Experimental: as §1

HSC-2 = test system: HSC-2
Experimental: as §1

ORL-215 = test system: ORL-215
Experimental: as §1

ORL-204 = test system: ORL-204
Experimental: as §1

SCC-9 = test system: SCC-9
Experimental: as §1

ORL-166 = test system: ORL-166
Experimental: as §1

ORL-156 = test system: ORL-156
Experimental: as §1

PE-CA-PJ15 = test system: PE-CA-PJ15
Experimental: as §1

ORL-153 = test system: ORL-153
Experimental: as §1

## CC(=O)O[C@H]1C(=O)[C@@]2(C)[C@H]([C@H](OC(=O)c3ccccc3)[C@]3(O)C[C@H](OC(=O)[C@H](O)[C@@H](NC(=O)c4ccccc4)c4ccccc4)C(C)=C1C3(C)C)[C@]1(OC(C)=O)CO[C@@H]1C[C@@H]2O [Paclitaxel]
ORL-214
  IC50 (ln): -5.78
ORL-115
  IC50 (ln): -4.44
ORL-48
  IC50 (ln): -5.51
BICR10
  IC50 (ln): -4.85
SAS
  IC50 (ln): -3.47
ORL-136
  IC50 (ln): -2.48
HSC-4
  IC50 (ln): -2.73
ORL-174
  IC50 (ln): -5.25
ORL-188
  IC50 (ln): -6.34
HO-1-u-1
  IC50 (ln): -3.72
ORL-195
  IC50 (ln): -4.66
ORL-207
  IC50 (ln): -5.88
ORL-150
  IC50 (ln): -6.11
HSC-2
  IC50 (ln): -5.85
ORL-215
  IC50 (ln): -5.5
ORL-204
  IC50 (ln): -4.96
SCC-9
  IC50 (ln): -3.62
ORL-166
  IC50 (ln): -5.21
ORL-156
  IC50 (ln): -4.99
PE-CA-PJ15
  IC50 (ln): -2.85
ORL-153
  IC50 (ln): -4.87

## Cc1[nH]c2ccccc2c1CCNCc1ccc(/C=C/C(=O)NO)cc1 [Panobinostat]
ORL-214
  IC50 (ln): -1.97
ORL-115
  IC50 (ln): 0.481
ORL-48
  IC50 (ln): -2.37
BICR10
  IC50 (ln): -0.934
SAS
  IC50 (ln): -1.8
ORL-136
  IC50 (ln): -0.667
HSC-4
  IC50 (ln): -0.0634
ORL-174
  IC50 (ln): -2.11
ORL-188
  IC50 (ln): -2
HO-1-u-1
  IC50 (ln): -1.92
ORL-195
  IC50 (ln): -1.26
ORL-207
  IC50 (ln): -2.37
ORL-150
  IC50 (ln): -1.77
HSC-2
  IC50 (ln): -1.23
ORL-215
  IC50 (ln): -1.39
ORL-204
  IC50 (ln): -1.01
SCC-9
  IC50 (ln): 0.43
ORL-166
  IC50 (ln): -2.65
ORL-156
  IC50 (ln): -2.16
PE-CA-PJ15
  IC50 (ln): -0.846
ORL-153
  IC50 (ln): -2.26

## CO[C@H]1C[C@@H]2CC[C@@H](C)[C@@](O)(O2)C(=O)C(=O)N2CCCC[C@H]2C(=O)O[C@H]([C@H](C)C[C@@H]2CC[C@@H](O)[C@H](OC)C2)CC(=O)[C@H](C)/C=C(\C)[C@@H](O)[C@@H](OC)C(=O)[C@H](C)C[C@H](C)/C=C/C=C/C=C/1C [Rapamycin]
ORL-214
  IC50 (ln): -4.26
ORL-115
  IC50 (ln): -0.458
ORL-48
  IC50 (ln): -2.12
BICR10
  IC50 (ln): -2.25
SAS
  IC50 (ln): -0.895
ORL-136
  IC50 (ln): -2.47
HSC-4
  IC50 (ln): -1.49
ORL-174
  IC50 (ln): -3.89
ORL-188
  IC50 (ln): -2.93
HO-1-u-1
  IC50 (ln): -2.71
ORL-195
  IC50 (ln): -2.97
ORL-207
  IC50 (ln): -3.35
ORL-150
  IC50 (ln): -1.89
HSC-2
  IC50 (ln): -2.87
ORL-215
  IC50 (ln): -0.198
ORL-204
  IC50 (ln): -1.41
SCC-9
  IC50 (ln): -0.629
ORL-166
  IC50 (ln): -2.82
ORL-156
  IC50 (ln): -3.47
PE-CA-PJ15
  IC50 (ln): -0.663
ORL-153
  IC50 (ln): -2.68

## C/C=C1\NC(=O)[C@H]2CSSCC/C=C/[C@H](CC(=O)N[C@H](C(C)C)C(=O)N2)OC(=O)[C@H](C(C)C)NC1=O [Romidepsin]
ORL-214
  IC50 (ln): -3.64
ORL-115
  IC50 (ln): -3.74
ORL-48
  IC50 (ln): -5.62
BICR10
  IC50 (ln): -4.05
SAS
  IC50 (ln): -4.87
ORL-136
  IC50 (ln): -4.02
HSC-4
  IC50 (ln): -2.03
ORL-174
  IC50 (ln): -5.44
ORL-188
  IC50 (ln): -5.03
HO-1-u-1
  IC50 (ln): -5.24
ORL-195
  IC50 (ln): -3.85
ORL-207
  IC50 (ln): -4.74
ORL-150
  IC50 (ln): -5.04
HSC-2
  IC50 (ln): -4.88
ORL-215
  IC50 (ln): -4.27
ORL-204
  IC50 (ln): -4.13
SCC-9
  IC50 (ln): -3.68
ORL-166
  IC50 (ln): -5.72
ORL-156
  IC50 (ln): -4.55
PE-CA-PJ15
  IC50 (ln): -3.12
ORL-153
  IC50 (ln): -5.8

## CCc1c2c(nc3ccc(O)cc13)-c1cc3c(c(=O)n1C2)COC(=O)[C@]3(O)CC [SN-38]
ORL-214
  IC50 (ln): -5.1
ORL-115
  IC50 (ln): -1.9
ORL-48
  IC50 (ln): -2.86
BICR10
  IC50 (ln): -1.02
SAS
  IC50 (ln): -5.93
ORL-136
  IC50 (ln): -0.854
HSC-4
  IC50 (ln): -4.28
ORL-174
  IC50 (ln): -3.86
ORL-188
  IC50 (ln): -4.81
HO-1-u-1
  IC50 (ln): -1.5
ORL-195
  IC50 (ln): -2.3
ORL-207
  IC50 (ln): -5.13
ORL-150
  IC50 (ln): -3.32
HSC-2
  IC50 (ln): -5.53
ORL-215
  IC50 (ln): -3.53
ORL-204
  IC50 (ln): -5
SCC-9
  IC50 (ln): -0.268
ORL-166
  IC50 (ln): -3.75
ORL-156
  IC50 (ln): -2.97
PE-CA-PJ15
  IC50 (ln): -2.9
ORL-153
  IC50 (ln): -4.49

## COCC[n+]1c2c(n(Cc3cnccn3)c1C)C(=O)c1ccccc1C2=O [Sepantronium bromide]
ORL-214
  IC50 (ln): -5.54
ORL-115
  IC50 (ln): -1.33
ORL-48
  IC50 (ln): -6.01
BICR10
  IC50 (ln): -2.2
SAS
  IC50 (ln): -6.78
ORL-136
  IC50 (ln): -6.45
HSC-4
  IC50 (ln): -4.35
ORL-174
  IC50 (ln): -4.12
ORL-188
  IC50 (ln): -4.09
HO-1-u-1
  IC50 (ln): -3.53
ORL-195
  IC50 (ln): -2.96
ORL-207
  IC50 (ln): -5.9
ORL-150
  IC50 (ln): -4.45
HSC-2
  IC50 (ln): -5.94
ORL-215
  IC50 (ln): -3.91
ORL-204
  IC50 (ln): -3.1
SCC-9
  IC50 (ln): -6.15
ORL-166
  IC50 (ln): -2.05
ORL-156
  IC50 (ln): -6.01
PE-CA-PJ15
  IC50 (ln): -4.17
ORL-153
  IC50 (ln): -5.11
